Test results: publication PMC8587043, “An Investigation into the Interaction between Double Hydroxide-Based Antioxidant Benzophenone Derivatives and Cyclooxygenase 2” (Molecules, 2021)

System: EA.hy926 cells
Assay: Cytotoxicity of compound SC2, MTT assay
Format: cell-based, human
Procedure: The cytotoxicity of compound SC2 on EA.hy926 cells was detected by 3-(4,5-dimethyl-2-thiazolyl)-2,5-diphenyl-2-H-tetrazolium bromide (MTT) assay.
Compound SC2 stock solutions were prepared in DMSO. The stock solutions were diluted with FBS free DMEM to different target concentrations (DMSO concentrations ≤ 0.5% v:v). Cells (100 μL, 2 × 10^5 cells∙mL^−1) were seeded on 96-well plates and cultured for 24 h. The medium was then replaced with fresh media containing H2O2 with different concentrations (0, 100, 200, 300, 400, 500, and 600 μmol·L^−1 in FBS free DMEM) and compound SC2 (50, 40, 30, 20, 10 µmol·L^−1), which were transferred to the incubator and cultured for additional time (2, 4, and 6 h). The medium was then replaced with 100 μL of FBS free DMEM and MTT (10 μL, 5 mg·mL^−1 in PBS) and after 4 h the medium was replaced with DMSO (100 μL). A microplate reader (SpectraMaxPlus384, Molecular Devices, United States) was used to record the absorbance at 490 nm for each well of the plates. Cell viability was measured via MTT assay. Survival rate (%) = (Asample group/Acontrol group) × 100%.

SMILES: CC(C)(C)c1ccc(C(=O)c2c(Cl)cc(O)c(O)c2O)cc1 [SC2]
- cell survival rate compared with control group (concentrations less than 30 µmol·L^−1): not significantly different
- effect on cells at concentration used in cell-based experiments (less than 10 µmol·L^−1): harmless to cells
